Here are results for 23 molecules from patent US20250074891A1 (Anaxis Pharma Pty Ltd., priority 2021, published 2025).

What all share (conditions): Table 35
Assay [1] addresses MLKL (full length) (Homo sapiens (Human), UniProt Q8NB16). As to the kind of experiment: KINOMEscan binding assay, MLKL (full length). The protocol: (§1) Kinase assays. For most assays, kinase-tagged T7 phage strains were grown in parallel in 24-well blocks in an E. coli host derived from the BL21 strain. E. coli were grown to log-phase and infected with T7 phage from a frozen stock (multiplicity of infection=0.4) and incubated with shaking at 32° C. until lysis (90-150 minutes).
(§2) The Hill Slope was set to −1.

The target of assay [2] is RIP1 (Homo sapiens (Human), UniProt Q13546). Briefly: KINOMEscan binding assay, RIP1.
RIP1, sequence (Q13546 whole entry): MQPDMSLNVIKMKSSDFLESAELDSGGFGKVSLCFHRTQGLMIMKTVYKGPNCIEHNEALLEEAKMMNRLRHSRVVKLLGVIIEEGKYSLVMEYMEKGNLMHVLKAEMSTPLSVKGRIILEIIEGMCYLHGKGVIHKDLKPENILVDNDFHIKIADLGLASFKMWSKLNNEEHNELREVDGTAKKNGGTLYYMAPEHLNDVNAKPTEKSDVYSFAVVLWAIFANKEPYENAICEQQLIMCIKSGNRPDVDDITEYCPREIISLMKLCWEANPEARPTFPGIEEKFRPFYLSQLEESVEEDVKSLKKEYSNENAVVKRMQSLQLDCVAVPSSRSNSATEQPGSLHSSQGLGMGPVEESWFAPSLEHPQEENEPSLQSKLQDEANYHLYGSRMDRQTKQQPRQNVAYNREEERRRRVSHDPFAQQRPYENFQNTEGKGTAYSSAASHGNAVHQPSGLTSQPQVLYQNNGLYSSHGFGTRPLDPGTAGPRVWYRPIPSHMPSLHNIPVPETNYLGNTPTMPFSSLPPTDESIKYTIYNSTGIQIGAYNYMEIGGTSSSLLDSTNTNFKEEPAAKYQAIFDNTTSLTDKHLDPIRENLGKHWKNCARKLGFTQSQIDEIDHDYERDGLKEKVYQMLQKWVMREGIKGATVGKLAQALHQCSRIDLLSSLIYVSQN
The target of assay [3] is RIP3 (Homo sapiens (Human), UniProt Q9Y572). Briefly: KINOMEscan binding assay, RIP3. The protocol: as §1, §2
RIP3, sequence (Q9Y572 whole entry): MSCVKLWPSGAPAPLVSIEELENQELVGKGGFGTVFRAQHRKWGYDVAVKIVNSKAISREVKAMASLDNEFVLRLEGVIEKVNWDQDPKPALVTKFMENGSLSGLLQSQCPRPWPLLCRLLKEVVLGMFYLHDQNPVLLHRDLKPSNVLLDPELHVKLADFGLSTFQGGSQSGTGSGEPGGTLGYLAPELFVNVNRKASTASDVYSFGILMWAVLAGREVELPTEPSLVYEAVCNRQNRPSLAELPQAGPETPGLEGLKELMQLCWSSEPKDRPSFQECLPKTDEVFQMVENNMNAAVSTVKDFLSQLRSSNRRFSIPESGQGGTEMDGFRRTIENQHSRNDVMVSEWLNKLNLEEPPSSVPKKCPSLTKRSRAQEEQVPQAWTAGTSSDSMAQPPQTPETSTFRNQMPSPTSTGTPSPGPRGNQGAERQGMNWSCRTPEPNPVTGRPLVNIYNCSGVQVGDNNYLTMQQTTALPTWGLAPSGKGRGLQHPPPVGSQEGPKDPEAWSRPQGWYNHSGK

MLKL (full length), sequence (Q8NB16 whole entry): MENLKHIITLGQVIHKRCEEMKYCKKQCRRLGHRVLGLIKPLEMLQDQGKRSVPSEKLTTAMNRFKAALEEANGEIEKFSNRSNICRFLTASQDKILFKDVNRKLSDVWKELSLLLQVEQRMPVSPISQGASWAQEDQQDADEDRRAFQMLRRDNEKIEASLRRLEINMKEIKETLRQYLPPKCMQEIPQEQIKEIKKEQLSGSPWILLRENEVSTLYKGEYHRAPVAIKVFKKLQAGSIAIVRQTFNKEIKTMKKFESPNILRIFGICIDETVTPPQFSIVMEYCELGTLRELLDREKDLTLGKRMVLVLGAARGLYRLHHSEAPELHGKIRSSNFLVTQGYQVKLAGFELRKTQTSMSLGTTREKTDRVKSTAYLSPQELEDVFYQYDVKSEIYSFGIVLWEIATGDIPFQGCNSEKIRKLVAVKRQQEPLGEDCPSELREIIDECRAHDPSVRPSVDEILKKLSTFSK

Regarding `CCS(=O)(=O)Nc1ccc(-c2n[nH]c(Nc3cnc(C4CC4)cn3)c2C(N)=O)cc1` [Compound 158, 5-((5-cyclopropylpyrazin-2-yl)amino)-3-(4-(ethylsulfonamido)phenyl)-1H-pyrazole-4-carboxamide], the Kd in assay [1] is < 0.01 µM; in assay [2], > 30 µM; in assay [3] it was > 30 µM.
In the case of `COc1ccc(Nc2[nH]nc(-c3ccc(NS(=O)(=O)CC(F)(F)F)c(OCc4ccc(F)cc4)c3)c2C(N)=O)cn1` [Compound 159, 3-(3-((4-fluorobenzyl)oxy)-4-((2,2,2-trifluoroethyl)sulfonamido)phenyl)-5-((6-methoxypyridin-3-yl)amino)-1H-pyrazole-4-carboxamide], the dissociation constant Kd was < 0.01 µM in assay [1], > 30 µM in assay [2] and > 30 µM in assay [3].
For the molecule `NC(=O)c1c(-c2ccc(NS(=O)(=O)CC(F)(F)F)c(OCc3ccc(F)c(F)c3)c2)n[nH]c1Nc1ccccn1` [Compound 160, 3-(3-((3,4-difluorobenzyl)oxy)-4-((2,2,2-trifluoroethyl)sulfonamido)phenyl)-5-(pyridine-2-ylamino)-1H-pyrazole-4-carboxamide], the Kd in assay [1] was < 0.01 µM; in assay [2], > 30 µM; in assay [3], > 30 µM.
In the case of `NC(=O)c1c(-c2ccc(NS(=O)(=O)CC(F)(F)F)c(OC3(c4ccccc4)CC3)c2)n[nH]c1Nc1cnccn1` [Compound 161, 3-(3-(1-phenylcyclopropoxy)-4-((2,2,2-trifluoroethyl)sulfonamido)phenyl)-5-(pyrazin-2-ylamino)-1H-pyrazole-4-carboxamide], the dissociation constant (Kd) in assay [1] is < 0.01 µM; in assay [2], > 30 µM; in assay [3] it was > 30 µM.
For `Cc1cnc(Nc2[nH]nc(-c3ccc(NS(=O)(=O)CC(F)(F)F)c(OCc4ccc(Cl)cc4)c3)c2C(N)=O)cn1` [Compound 162, 3-(3-((4-chlorobenzyl)oxy)-4-((2,2,2-trifluoroethyl)sulfonamido)phenyl)-5-((5-methylpyrazin-2-yl)amino)-1H-pyrazole-4-carboxamide], the equilibrium dissociation constant (Kd) is < 0.01 µM in assay [1], > 30 µM in assay [2] and > 30 µM in assay [3].
Regarding `Cc1cnc(Nc2[nH]nc(-c3ccc(NS(=O)(=O)CC(F)(F)F)c(OCc4ccc(F)cc4)c3)c2C(N)=O)cn1` [Compound 163, 3-(3-((4-fluorobenzyl)oxy)-4-((2,2,2-trifluoroethyl)sulfonamido)phenyl)-5-((5-methylpyrazin-2-yl)amino)-1H-pyrazole-4-carboxamide], the Kd is < 0.01 µM in assay [1], > 30 µM in assay [2] and > 30 µM in assay [3].
Turning to `C[C@H](Oc1cc(-c2n[nH]c(Nc3cnccn3)c2C(N)=O)ccc1NS(=O)(=O)CC(F)(F)F)c1ccc(F)cc1` [Compound 164, (S)-3-(3-(1-(4-fluorophenyl)ethoxy)-4-((2,2,2-trifluoroethyl)sulfonamido)phenyl)-5-(pyrazin-2-ylamino)-1H-pyrazole-4-carboxamide], the Kd is < 0.01 µM in assay [1], > 30 µM in assay [2] and > 30 µM in assay [3].
Consider `NC(=O)c1c(-c2ccc(NS(=O)(=O)CC(F)(F)F)c(OCc3ccc(Cl)c(F)c3)c2)n[nH]c1Nc1cnccn1` [Compound 165, 3-(3-((4-chloro-3-fluorobenzyl)oxy)-4-((2,2,2-trifluoroethyl)sulfonamido)phenyl)-5-(pyrazin-2-ylamino)-1H-pyrazole-4-carboxamide], for which the dissociation constant (Kd) in assay [1] was < 0.01 µM; in assay [2] it was > 30 µM; in assay [3], > 30 µM.
In the case of `CCS(=O)(=O)Nc1ccc(-c2n[nH]c(Nc3cnccn3)c2C(N)=O)cc1OCc1ccc(Cl)c(F)c1` [Compound 166, 3-(3-((4-chloro-3-fluorobenzyl)oxy)-4-(ethylsulfonamido)phenyl)-5-(pyrazin-2-ylamino)-1H-pyrazole-4-carboxamide], the Kd is < 0.01 µM in assay [1], > 30 µM in assay [2] and > 30 µM in assay [3].
Turning to `NC(=O)c1c(-c2ccc(NS(=O)(=O)CC(F)(F)F)c(Oc3cccc(F)c3)c2)n[nH]c1Nc1cnccn1` [Compound 167, 3-(3-(3-fluorophenoxy)-4-((2,2,2-trifluoroethyl)sulfonamido)phenyl)-5-(pyrazin-2-ylamino)-1H-pyrazole-4-carboxamide], the values for the Kd in assay [1], in assay [2] and in assay [3] were < 0.01 µM, > 30 µM and > 30 µM, respectively.
As for `NC(=O)c1c(-c2ccc(NS(=O)(=O)CC(F)(F)F)c(Oc3ccc(Cl)cc3)c2)n[nH]c1Nc1cnccn1` [Compound 168, 3-(3-(4-chlorophenoxy)-4-((2,2,2-trifluoroethyl)sulfonamido)phenyl)-5-(pyrazin-2-ylamino)-1H-pyrazole-4-carboxamide], the Kd in assay [1] is < 0.01 µM; in assay [2], > 30 µM; in assay [3] it was > 30 µM.
For the molecule `NC(=O)c1c(-c2ccc(NS(=O)(=O)C3CC3)c(OCc3ccc(F)cc3)c2)n[nH]c1Nc1cnccn1` [Compound 169, 3-(4-(cyclopropanesulfonamido)-3-((4-fluorobenzyl)oxy)phenyl)-5-(pyrazin-2-ylamino)-1H-pyrazole-4-carboxamide], the Kd was < 0.01 µM in assay [1], > 30 µM in assay [2] and > 30 µM in assay [3].
As for `NC(=O)c1c(-c2ccc(NS(=O)(=O)CC(F)(F)F)c(OCc3ccc(F)cc3)c2)n[nH]c1Nc1cnccn1` [Compound 170, 3-(3-((4-fluorobenzyl)oxy)-4-((2,2,2-trifluoroethyl)sulfonamido)phenyl)-5-(pyrazin-2-ylamino)-1H-pyrazole-4-carboxamide], the Kd in assay [1] was < 0.01 µM; in assay [2] it was > 30 µM; in assay [3] it was > 30 µM.
In the case of `CCS(=O)(=O)Nc1ccc(-c2n[nH]c(Nc3cnccn3)c2C(N)=O)cc1OCc1ccc(F)cc1C` [Compound 171, 3-(4-(ethylsulfonamido)-3-((4-fluoro-2-methylbenzyl)oxy)phenyl)-5-(pyrazin-2-ylamino)-1H-pyrazole-4-carboxamide], the dissociation constant (Kd) in assay [1] was < 0.01 µM; in assay [2], > 30 µM; in assay [3], > 30 µM.
As to `NC(=O)c1c(-c2ccc(NS(=O)(=O)CC(F)(F)F)c(OCc3ccc(F)cc3)c2)n[nH]c1Nc1cccc(C(F)F)n1` [Compound 173, 5-((6-(difluoromethyl)pyridine-2-yl)amino)-3-(3-((4-fluorobenzyl)oxy)-4-((2,2,2-trifluoroethyl)sulfonamido)phenyl)-1H-pyrazole-4-carboxamide], the Kd is < 0.01 µM in assay [1], > 30 µM in assay [2] and > 30 µM in assay [3].
With `NC(=O)c1c(-c2ccc(NS(=O)(=O)CC(F)(F)F)c(OCc3ccc(F)c(F)c3)c2)n[nH]c1Nc1cnccn1` [Compound 175, 3-(3-((3,4-difluorobenzyl)oxy)-4-((2,2,2-trifluoroethyl)sulfonamido)phenyl)-5-(pyrazin-2-ylamino)-1H-pyrazole-4-carboxamide], the equilibrium dissociation constant (Kd) in assay [1] was < 0.01 µM; in assay [2] it was > 30 µM; in assay [3] it was > 30 µM.
For the molecule `NC(=O)c1c(-c2ccc(NS(=O)(=O)CC(F)(F)F)c(OCc3ccc(F)cc3)c2)n[nH]c1Nc1ccc(C(F)(F)F)nc1` [Compound 176, 3-(3-((4-fluorobenzyl)oxy)-4-((2,2,2-trifluoroethyl)sulfonamido)phenyl)-5-((6-(trifluoromethyl)pyridine-3-yl)amino)-1H-pyrazole-4-carboxamide], the Kd is < 0.01 µM in assay [1], > 30 µM in assay [2] and > 30 µM in assay [3].
For `NC(=O)c1c(-c2ccc(NS(=O)(=O)C(F)F)c(Oc3ccc(F)cc3)c2)n[nH]c1Nc1cnccn1` [Compound 177, 3-(4-((difluoromethyl)sulfonamido)-3-(4-fluorophenoxy)phenyl)-5-(pyrazin-2-ylamino)-1H-pyrazole-4-carboxamide], the dissociation constant (Kd) in assay [1] was < 0.01 µM; in assay [2], > 30 µM; in assay [3], > 30 µM.
With `NC(=O)c1c(-c2ccc(NS(=O)(=O)CC(F)F)c(OCc3ccc(F)cc3)c2)n[nH]c1Nc1cccc(C(F)(F)F)n1` [Compound 178, 3-(4-((2,2-difluoroethyl)sulfonamido)-3-((4-fluorobenzyl)oxy)phenyl)-5-((6-(trifluoromethyl)pyridine-2-yl)amino)-1H-pyrazole-4-carboxamide], the results for the dissociation constant Kd in assay [1], in assay [2] and in assay [3] were < 0.01 µM, > 30 µM and > 30 µM, respectively.
`CCS(=O)(=O)Nc1ccc(-c2n[nH]c(Nc3cccc(C(F)F)n3)c2C(N)=O)cc1OCc1ccc(F)cc1` [Compound 179, 5-((6-(difluoromethyl)pyridine-2-yl)amino)-3-(4-(ethylsulfonamido)-3-((4-fluorobenzyl)oxy)phenyl)-1H-pyrazole-4-carboxamide]: the figures for the Kd in assay [1], in assay [2] and in assay [3] were < 0.01 µM, > 30 µM and > 30 µM, respectively.
As for `NC(=O)c1c(-c2ccc(NS(=O)(=O)CC(F)F)c(OCc3ccc(F)cc3)c2)n[nH]c1Nc1cnccn1` [Compound 180, 3-(4-((2,2-difluoroethyl)sulfonamido)-3-((4-fluorobenzyl)oxy)phenyl)-5-(pyrazin-2-ylamino)-1H-pyrazole-4-carboxamide], the Kd in assay [1] was < 0.01 µM; in assay [2], > 30 µM; in assay [3], > 30 µM.
As for `Cc1cnc(Nc2[nH]nc(-c3ccc(NS(=O)(=O)CCC(F)(F)F)c(OCc4ccc(F)cc4)c3)c2C(N)=O)cn1` [Compound 183, 3-(3-((4-fluorobenzyl)oxy)-4-((3,3,3-trifluoropropyl)sulfonamido)phenyl)-5-((5-methylpyrazin-2-yl)amino)-1H-pyrazole-4-carboxamide], the dissociation constant (Kd) in assay [1] is < 0.01 µM; in assay [2] it was > 30 µM; in assay [3], > 30 µM.
For `NC(=O)c1c(-c2ccc(NS(=O)(=O)CCC(F)(F)F)c(OCc3ccc(F)cc3)c2)n[nH]c1Nc1cnccn1` [Compound 184, 3-(3-((4-fluorobenzyl)oxy)-4-((3,3,3-trifluoropropyl)sulfonamido)phenyl)-5-(pyrazin-2-ylamino)-1H-pyrazole-4-carboxamide], the figures for the dissociation constant (Kd) in assay [1], in assay [2] and in assay [3] were < 0.01 µM, > 30 µM and > 30 µM, respectively.
